# Patent publication US10398781B2, “Conjugate based systems for controlled drug delivery” (SmartCells, Inc., priority 2009, dated 2019)
# Legend:
# blood glucose [1] = assay: Glucose lowering after i.v. injection in minipigs with and without a-MM infusion; assay type: in vivo, non-diabetic male Yucatan minipigs; details: 0.1 U/kg i.v.; for overall bioactivity (glucose lowering): minipigs
# [2] = Sugar-dependent i.v. elimination half-life in minipigs; assay type: in vivo, non-diabetic, male miniature swine (Yucatan strain); details: pigs, 0.1 U/kg i.v.
# blood glucose [3] = assay: Sub-Q injection in non-diabetic and alloxan-diabetic minipigs; assay type: in vivo, Yucatan minipigs
# [4] = Accelerated stability testing (AST) aggregation assay; assay type: physicochemical; details: PBS buffer
# [5] = system: serum insulin and blood glucose levels; assay: Effect of IP exogenous saccharide 15 minutes after sub-Q conjugate on PK/PD profile; assay type: in vivo, fasted normal non-diabetic rats (Male Sprague-Dawley)
# [6] = system: serum insulin and blood glucose levels; assay: Effect of a-MM co-injected at the local sub-Q injection site; assay type: in vivo, non-diabetic, male SD rats; details: 5 U/kg sub-Q
# Experimental: In view of the data described in Example 42, we set out to determine whether the alpha-methyl mannose (a-MM) induced increase in serum conjugate concentration and bioactivity was a result of an increased rate of absorption from the subcutaneous injection site. The high affinity TSAT-C6-AETM-2 conjugate I-2 was used for this experiment. First, the conjugate was diluted to a concentration of 5 U/ml (0.2 mg/ml insulin equivalent) using either a buffered saline solution or a buffered saline solution containing 1 M a-MM. Each solution was injected sub-Q at a dose of 5 U/kg into the back of the neck of each of three non-diabetic, male SD rats at time 0 and blood samples were collected via tail vein bleeding at 0 minutes and at 15, 30, 45, 60, 90, 120, 150, 180, 240, and 300 minutes after injection. […] In this experiment, rats that received the a-MM conjugate solution also received an injection of buffered saline solution sub-Q at a separate hind quarter injection site at 15 minutes. Rats that received the saline conjugate solution also received an injection of a-MM solution sub-Q at a separate hind quarter injection site at 15 minutes.
# blood glucose [7] = assay: Blood glucose depression profile after subcutaneous injection; assay type: in vivo, fasted normal non-diabetic rats (Male Sprague-Dawley); details: sub-Q
# [8] = sub-Q, II-2 0.25, 0.50, 1.00 U/kg, RHI 0.063 and 0.125 U/kg
# [9] = 0.25 ml of 20 U equivalent insulin/ml
substance,measurement,setting,value
"II-2: A1,B29-disubstituted insulin, TSAT-C6 frameworks, four AETM ligands",area over the glucose lowering curve in the presence of a-MM vs. absence of sugar,blood glucose [1],approximately 2.6 ×
same,a-MM induced bioactivity,blood glucose [1]; a-MM infusion 25% w/v 80 ml/h,increased the a-MM induced bioactivity
same,overall bioactivity (glucose lowering),blood glucose [1],reduced overall bioactivity
same,increase in t1/2 in the presence of a-MM,[2],~10 fold
same,duration of hypoglycemia-free glucose control in diabetic minipigs,blood glucose [3]; single injection of approximately 0.5 U/kg,6 to 8 h
same,"blood glucose in alloxan-diabetic, hyperglycemic minipigs",blood glucose [3]; [8],significant dose-dependent reduction in blood glucose levels
same,hypoglycemia / glucose-lowering in non-diabetic minipigs,blood glucose [3]; [8],absolutely no hypoglycemia or signs of glucose-lowering
I-16: human insulin conjugated at B1 to TSPE framework with three AEM ligands,AST aggregation stability compared with RHI,[4],greatly enhanced stability over pharmaceutical grade RHI
I-2: human insulin conjugated at B1 to TSAT-C6 framework with two AETM ligands,effect of IP L-fucose on serum insulin profile,[5]; L-fucose IP 15 minutes after sub-Q injection,alpha-methyl mannose and L-fucose appear to exhibit the same kind of effect
same,change in PK/PD profile from IP injection of alpha-methyl mannose vs. saline,[5]; a-MM IP 15 minutes after sub-Q injection,very significant (p<0.05)
same,effect of IP galactose on serum insulin profile,[5]; galactose IP 15 minutes after sub-Q injection,no effect as compared to saline
same,effect of IP glucose on serum insulin profile,[5]; glucose IP 15 minutes after sub-Q injection,small effect
same,serum insulin and blood glucose with 1M a-MM co-injected vs. buffered saline,[6],the serum insulin levels do not increase and the blood glucose levels do not decrease
I-12: human insulin conjugated at A1 to TSAT-C6 framework with two AETM ligands,overall bioactivity (glucose lowering),blood glucose [1],slightly more effective in lowering glucose than conjugate I-6
insulin-dextran: comparative insulin-dextran (MW~70K) conjugate made by CNBr coupling per U.S. Patent Publication No. 20040202719,duration of serum glucose depression post injection,blood glucose [7]; [9],at least five hours
same,time to reach the glucose nadir (Tnadir),blood glucose [7]; [9],about 3 hours
insulin-glycogen: comparative insulin-oyster glycogen (Type II) conjugate per U.S. Patent Application Publication No. 20070099820,glucose depression profile / glucose lowering response,blood glucose [7]; 2.5-5 U/kg,lower glucose levels much more rapidly and to a greater extent
